One block for each compound: values may come before it.
What was measured:
Urotensin-2 receptor [1] = molecular target: T1, Urotensin-2 receptor (Homo sapiens, UniProt Q9UKP6); test: Agonist activity at human UT receptor expressed in HEK293 cells co-expressing beta-arrestin1-polycistronic BRET biosensor assessed as induction of beta-arrestin1 recruitment measured for 5 mins by luminescence detection based BRET assay; format: functional, cell-based
T1 sequence (Q9UKP6 whole entry): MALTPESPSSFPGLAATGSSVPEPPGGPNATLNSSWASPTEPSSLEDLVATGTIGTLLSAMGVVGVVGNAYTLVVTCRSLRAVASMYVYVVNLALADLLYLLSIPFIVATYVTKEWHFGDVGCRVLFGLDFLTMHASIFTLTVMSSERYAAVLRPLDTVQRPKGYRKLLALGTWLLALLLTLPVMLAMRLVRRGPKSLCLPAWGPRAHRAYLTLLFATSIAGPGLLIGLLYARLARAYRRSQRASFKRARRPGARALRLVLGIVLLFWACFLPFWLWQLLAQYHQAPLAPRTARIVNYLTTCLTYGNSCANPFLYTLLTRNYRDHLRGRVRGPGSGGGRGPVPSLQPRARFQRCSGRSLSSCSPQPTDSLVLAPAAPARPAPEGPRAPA

Urotensin-2 receptor [2] = molecular target: T1, Urotensin-2 receptor; test: Agonist activity at human UT receptor expressed in HEK293 cells co-expressing Gq-polycistronic BRET biosensor assessed as induction of Gq activation measured for 5 mins by luminescence detection based BRET assay; format: functional, cell-based
Urotensin-2 receptor [3] = molecular target: T1, Urotensin-2 receptor; test: Displacement of [Na125I]-synthetic URP from human UT receptor expressed in HEK293 cell membranes incubated for 2 hrs by gamma-counting
Urotensin-2 receptor [4] = molecular target: T2, Urotensin-2 receptor (Rattus norvegicus, UniProt P49684); test: Agonist activity at UT receptor in Sprague-Dawley rat thoracic aortic ring assessed as induction of contraction; format: functional
T2 sequence (P49684 whole entry): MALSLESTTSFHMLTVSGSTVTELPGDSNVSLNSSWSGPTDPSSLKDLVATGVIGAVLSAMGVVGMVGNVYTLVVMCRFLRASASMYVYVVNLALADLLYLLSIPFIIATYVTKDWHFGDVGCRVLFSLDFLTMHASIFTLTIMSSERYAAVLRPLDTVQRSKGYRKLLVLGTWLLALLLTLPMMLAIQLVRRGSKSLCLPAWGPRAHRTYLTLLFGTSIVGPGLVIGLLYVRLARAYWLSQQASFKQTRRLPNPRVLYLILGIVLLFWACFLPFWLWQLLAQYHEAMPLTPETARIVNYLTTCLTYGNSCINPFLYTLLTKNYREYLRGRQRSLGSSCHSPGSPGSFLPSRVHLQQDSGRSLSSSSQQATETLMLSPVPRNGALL

Urotensin-2 receptor [5] = molecular target: T1, Urotensin-2 receptor; test: Agonist activity at human UT receptor expressed in HEK293 cells co-expressing G12-polycistronic BRET biosensor assessed as induction of G12 activation measured for 5 mins by luminescence detection based BRET assay; format: functional, cell-based
[6] = molecular target: T3, Urotensin-2 receptor (Homo sapiens) (UniProt Q9UKP6); test: (§1) Bias factor, ratio of deltalog(Tau/KA) for agonist activity at human UT receptor expressed in HEK293 cells co-expressing Gq-polycistronic BRET biosensor assessed as induction of Gq activation by luminescence detection based BRET assay to deltalog(Tau/KA) for agonist activity at human UT receptor expressed in HEK293 cells co-expressing G12-polycistronic BRET biosensor assessed as induction of G12 activation by luminescence detection based BRET assay; format: functional, cell-based
T3 sequence (whole entry): T1 sequence (Q9UKP6 whole entry)

[7] = molecular target: T3, Urotensin-2 receptor (Homo sapiens); test: as §1, with “beta-arrestin1-polycistronic” for “G12-polycistronic”, “beta-arrestin1 recruitment” for “G12 activation”; format: functional, cell-based
[8] = molecular target: T3, Urotensin-2 receptor (Homo sapiens); test: as §1, with “Selectivity index, change in” for “Bias factor, ratio of”, “beta-arrestin1-polycistronic” for “G12-polycistronic”, “beta-arrestin1 recruitment” for “G12 activation”; format: functional, cell-based
[9] = molecular target: T3, Urotensin-2 receptor (Homo sapiens); test: Agonist activity at human UT receptor expressed in HEK293 cells co-expressing beta-arrestin1-polycistronic BRET biosensor assessed as induction of beta-arrestin1 recruitment measured for 5 mins by luminescence detection based BRET assay relative to 10 uM URP; format: functional, cell-based
[10] = molecular target: T3, Urotensin-2 receptor (Homo sapiens); test: Agonist activity at human UT receptor expressed in HEK293 cells co-expressing Gq-polycistronic BRET biosensor assessed as induction of Gq activation measured for 5 mins by luminescence detection based BRET assay relative to 10 uM URP; format: functional, cell-based
[11] = molecular target: T3, Urotensin-2 receptor (Homo sapiens); test: Bias factor, ratio of deltalog(Tau/KA) for agonist activity at human UT receptor expressed in HEK293 cells co-expressing beta-arrestin1-polycistronic BRET biosensor assessed as induction of beta-arrestin1 recruitment by luminescence detection based BRET assay to deltalog(Tau/KA) for agonist activity at human UT receptor expressed in HEK293 cells co-expressing Gq-polycistronic BRET biosensor assessed as induction of Gq activation by luminescence detection based BRET assay; format: functional, cell-based
[12] = molecular target: T3, Urotensin-2 receptor (Homo sapiens); test: Selectivity index, change in deltalog(Tau/KA) for agonist activity at human UT receptor expressed in HEK293 cells co-expressing G12-polycistronic BRET biosensor assessed as induction of G12 activation by luminescence detection based BRET assay to deltalog(Tau/KA) for agonist activity at human UT receptor expressed in HEK293 cells co-expressing Gq-polycistronic BRET biosensor assessed as induction of Gq activation by luminescence detection based BRET assay; format: functional, cell-based
[13] = molecular target: T3, Urotensin-2 receptor (Homo sapiens); test: Bias factor, ratio of deltalog(Tau/KA) for agonist activity at human UT receptor expressed in HEK293 cells co-expressing G12-polycistronic BRET biosensor assessed as induction of G12 activation by luminescence detection based BRET assay to deltalog(Tau/KA) for agonist activity at human UT receptor expressed in HEK293 cells co-expressing beta-arrestin1-polycistronic BRET biosensor assessed as induction of beta-arrestin1 recruitment by luminescence detection based BRET assay; format: functional, cell-based
[14] = molecular target: T3, Urotensin-2 receptor (Homo sapiens); test: Agonist activity at human UT receptor expressed in HEK293 cells co-expressing G12-polycistronic BRET biosensor assessed as induction of G12 activation measured for 5 mins by luminescence detection based BRET assay relative to 10 uM URP; format: functional, cell-based
[15] = molecular target: T3, Urotensin-2 receptor (Homo sapiens); test: Selectivity index, change in deltalog(Tau/KA) for agonist activity at human UT receptor expressed in HEK293 cells co-expressing beta-arrestin1-polycistronic BRET biosensor assessed as induction of beta-arrestin1 recruitment by luminescence detection based BRET assay to deltalog(Tau/KA) for agonist activity at human UT receptor expressed in HEK293 cells co-expressing G12-polycistronic BRET biosensor assessed as induction of G12 activation by luminescence detection based BRET assay to; format: functional, cell-based
[16] = molecular target: T4, Urotensin-2 receptor (Rattus norvegicus) (UniProt P49684); test: Agonist activity at UT receptor in Sprague-Dawley rat thoracic aortic ring assessed as induction of contraction relative to KCl-induced contraction; format: functional
T4 sequence (whole entry): T2 sequence (P49684 whole entry)

[17] = molecular target: T3, Urotensin-2 receptor (Homo sapiens); test: Bias factor, ratio of deltalog(Tau/KA) for agonist activity at human UT receptor expressed in HEK293 cells co-expressing beta-arrestin1-polycistronic BRET biosensor assessed as induction of beta-arrestin1 recruitment by luminescence detection based BRET assay to deltalog(Tau/KA) for agonist activity at human UT receptor expressed in HEK293 cells co-expressing G12-polycistronic BRET biosensor assessed as induction of G12 activation by luminescence detection based BRET assay; format: functional, cell-based
[18] = molecular target: T3, Urotensin-2 receptor (Homo sapiens); test: Bias factor, ratio of deltalog(Tau/KA) for agonist activity at human UT receptor expressed in HEK293 cells co-expressing G12-polycistronic BRET biosensor assessed as induction of G12 activation by luminescence detection based BRET assay to deltalog(Tau/KA) for agonist activity at human UT receptor expressed in HEK293 cells co-expressing Gq-polycistronic BRET biosensor assessed as induction of Gq activation by luminescence detection based BRET assay; format: functional, cell-based

SMILES: CC(C)[C@H](NC(=O)[C@@H]1CSSC[C@H](NC(=O)[C@H](C)N)C(=O)N[C@H](Cc2ccc(I)cc2)C(=O)N[C@@H](Cc2c[nH]c3ccccc23)C(=O)N[C@@H](CCCCN)C(=O)N[C@@H](Cc2ccc(O)cc2)C(=O)N1)C(=O)O
EC50 (Urotensin-2 receptor [1]): 355 nM
EC50 (Urotensin-2 receptor [2]): 53.7 nM
IC50 (Urotensin-2 receptor [3]): > 1000 nM
EC50 (Urotensin-2 receptor [4]): 13.8 nM
EC50 (Urotensin-2 receptor [5]): 89.1 nM

SMILES: CC(C)[C@H](NC(=O)[C@@H]1CSSC[C@H](NC(=O)[C@H](C)N)C(=O)N[C@H](Cc2ccc(C#Cc3ccccc3)cc2)C(=O)N[C@@H](Cc2c[nH]c3ccccc23)C(=O)N[C@@H](CCCCN)C(=O)N[C@@H](Cc2ccc(O)cc2)C(=O)N1)C(=O)O
EC50 (Urotensin-2 receptor [1]): 3310 nM
EC50 (Urotensin-2 receptor [2]): 617 nM
IC50 (Urotensin-2 receptor [3]): > 1000 nM
EC50 (Urotensin-2 receptor [4]): 1.35 nM
EC50 (Urotensin-2 receptor [5]): 380 nM

SMILES: CC(C)[C@H](NC(=O)[C@@H]1CSSC[C@H](NC(=O)[C@@H](N)CC(=O)O)C(=O)N[C@H](Cc2ccc(I)cc2)C(=O)N[C@@H](Cc2c[nH]c3ccccc23)C(=O)N[C@@H](CCCCN)C(=O)N[C@@H](Cc2ccc(O)cc2)C(=O)N1)C(=O)O
EC50 (Urotensin-2 receptor [1]): 347 nM
EC50 (Urotensin-2 receptor [2]): 46.8 nM
IC50 (Urotensin-2 receptor [3]): > 1000 nM
EC50 (Urotensin-2 receptor [4]): > 10000 nM
EC50 (Urotensin-2 receptor [5]): 123 nM

The next compounds have a lower EC50 (Urotensin-2 receptor [1]) than those just listed; values first:

EC50 (Urotensin-2 receptor [1]): 182 nM
EC50 (Urotensin-2 receptor [2]): 10.7 nM
fold change (FC) [6]: 1.3
fold change (FC) [7]: 0.5
selectivity index, deltadeltalog(Tau/KA) [8]: -0.32
Emax [9]: 101%
Emax [10]: 97%
IC50 (Urotensin-2 receptor [3]): 5.62 nM
fold change (FC) [11]: 2.1
deltalog(Tau/KA) [12]: -0.12
fold change (FC) [13]: 0.4
EC50 (Urotensin-2 receptor [4]): 31.6 nM
Emax [14]: 73%
deltadeltalog(Tau/KA) (beta-arrestin1 selectivity index) [15]: 0.45
EC50 (Urotensin-2 receptor [5]): 47.9 nM
Emax [16]: 53%
fold change (FC) [17]: 2.8
fold change (FC) [18]: 0.8
SMILES: CC(C)[C@H](NC(=O)[C@@H]1CSSC[C@H](NC(=O)[C@H](C)N)C(=O)N[C@@H](Cc2ccc(I)cc2)C(=O)N[C@@H](Cc2c[nH]c3ccccc23)C(=O)N[C@@H](CCCCN)C(=O)N[C@@H](Cc2ccc(O)cc2)C(=O)N1)C(=O)O

EC50 (Urotensin-2 receptor [1]): 145 nM
EC50 (Urotensin-2 receptor [2]): 3.63 nM
fold change (FC) [6]: 1
fold change (FC) [7]: 1
selectivity index, deltadeltalog(Tau/KA) [8]: 0
IC50 (Urotensin-2 receptor [3]): 19.5 nM
fold change (FC) [11]: 1
deltalog(Tau/KA) [12]: 0
fold change (FC) [13]: 1
EC50 (Urotensin-2 receptor [4]): 6.92 nM
deltadeltalog(Tau/KA) (beta-arrestin1 selectivity index) [15]: 0
EC50 (Urotensin-2 receptor [5]): 91.2 nM
Emax [16]: 107%
fold change (FC) [17]: 1
fold change (FC) [18]: 1
SMILES: CC(C)[C@H](NC(=O)[C@@H]1CSSC[C@H](NC(=O)[C@H](C)N)C(=O)N[C@@H](Cc2ccccc2)C(=O)N[C@@H](Cc2c[nH]c3ccccc23)C(=O)N[C@@H](CCCCN)C(=O)N[C@@H](Cc2ccc(O)cc2)C(=O)N1)C(=O)O

Reference: ChEMBL document CHEMBL4196183, “Discovery of New Allosteric Modulators of the Urotensinergic System through Substitution of the Urotensin II-Related Peptide (URP) Phenylalanine Residue” (J Med Chem, 2018)
